Tests used:
[1] = molecular target: T1, PDE4B (human recombinant) (Homo sapiens, UniProt Q07343); assay: PDE4B inhibition, IMAP Fluorescence Polarisation (FP) assay; format: biochemical; conditions: mean of n = 3 readings; accurate to about ±0.5 log unit; read-out: PDE4B pIC50 (± about 0.5) (FP assay), Mean pIC50 value (converted)
T1 construct: made in house; host or cells: Saccharomyces cerevisiae strain GL62 (PDE-deficient yeast)
Text: Human recombinant PDE4B, in particular the 2B splice variant thereof (HSPDE4B2B), is disclosed in WO 94/20079 and also M. M. McLaughlin et al., “A low Km, rolipram-sensitive, cAMP-specific phosphodiesterase from human brain: cloning and expression of cDNA, biochemical characterisation of recombinant protein, and tissue distribution of mRNA”, J. Biol. Chem., 1993, 268, 6470-6476. For example, in Example 1 of WO 94/20079, human recombinant PDE4B is described as being expressed in the PDE-deficient yeast Saccharomyces cerevisiae strain GL62, e.g. after induction by addition of 150 uM CuSO4, and 100,000×g supernatant fractions of yeast cell lysates are described for use in the harvesting of PDE4B enzyme.
(§1) The ability of compounds to inhibit catalytic activity at PDE4B (human recombinant) or PDE4D (human recombinant) can optionally be determined by IMAP Fluorescence Polarisation (FP) assay (IMAP Explorer kit, available from Molecular Devices Corporation, Sunnydale, Calif., USA; Molecular Devices code: R8062) in 384-well format.
(§2) The IMAP FP assay is able to measure PDE activity in an homogenous, non-radioactive assay format. […] Binding of Fl-AMP product to the beads (coated with the immobilised trivalent cations) slows the rotation of the bound Fl-AMP and leads to an increase in the fluorescence polarisation ratio of parallel to perpendicular light. […]

[2] = molecular target: PDE4D (human recombinant) (Homo sapiens, UniProt Q08499); assay: PDE4D inhibition, IMAP Fluorescence Polarisation (FP) assay; format: biochemical; conditions: mean of n = 3 readings; accurate to about ±0.5 log unit; read-out: PDE4D pIC50 (± about 0.5) (FP assay), Mean pIC50 value (converted)
Sequence of PDE4D (human recombinant) (Q08499 1-673 isoform Q08499-2): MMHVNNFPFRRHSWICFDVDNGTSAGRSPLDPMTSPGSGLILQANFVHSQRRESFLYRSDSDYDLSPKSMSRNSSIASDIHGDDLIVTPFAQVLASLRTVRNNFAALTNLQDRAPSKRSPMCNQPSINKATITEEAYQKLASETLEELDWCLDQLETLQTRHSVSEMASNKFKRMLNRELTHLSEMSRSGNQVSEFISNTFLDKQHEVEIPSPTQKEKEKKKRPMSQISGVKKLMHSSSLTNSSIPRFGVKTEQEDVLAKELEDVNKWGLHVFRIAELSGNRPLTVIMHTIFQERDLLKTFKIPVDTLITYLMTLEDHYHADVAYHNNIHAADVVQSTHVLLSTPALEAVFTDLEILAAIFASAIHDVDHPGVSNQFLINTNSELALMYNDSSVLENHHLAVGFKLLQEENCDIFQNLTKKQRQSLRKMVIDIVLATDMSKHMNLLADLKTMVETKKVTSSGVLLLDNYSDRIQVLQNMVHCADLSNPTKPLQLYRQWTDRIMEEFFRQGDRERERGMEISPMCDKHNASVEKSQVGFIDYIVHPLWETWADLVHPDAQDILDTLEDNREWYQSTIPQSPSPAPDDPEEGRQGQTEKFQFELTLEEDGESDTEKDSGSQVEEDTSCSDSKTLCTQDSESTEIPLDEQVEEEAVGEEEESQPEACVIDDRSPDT
Text: Human recombinant PDE4D (HSPDE4D3A) is disclosed in P. A. Baecker et al., “Isolation of a cDNA encoding a human rolipram-sensitive cyclic AMP phoshodiesterase (PDE IVD)”, Gene, 1994, 138, 253-256.
as §1, §2
Test compounds (small volume, e.g. ca. 0.5 to 1 microlitres (ul), suitably ca. 0.5 ul, of solution in DMSO) are preincubated at ambient temperature (room temperature, e.g. 19-23° C.) in black 384-well microtitre plates (supplier: NUNC, code 262260) with PDE enzyme in 10 mM Tris-HCl buffer pH 7.2, 1 mM MgCl2, 0.1% (w/v) bovine serum albumin, and 0.05% NaN3 for 10-30 minutes. […] The Fluorescence Polarisation (FP) ratio of parallel to perpendicular light is measured using an Analyst™ plate reader (from Molecular Devices Corporation). […]

T1 sequence (Q07343 1-564 isoform Q07343-2): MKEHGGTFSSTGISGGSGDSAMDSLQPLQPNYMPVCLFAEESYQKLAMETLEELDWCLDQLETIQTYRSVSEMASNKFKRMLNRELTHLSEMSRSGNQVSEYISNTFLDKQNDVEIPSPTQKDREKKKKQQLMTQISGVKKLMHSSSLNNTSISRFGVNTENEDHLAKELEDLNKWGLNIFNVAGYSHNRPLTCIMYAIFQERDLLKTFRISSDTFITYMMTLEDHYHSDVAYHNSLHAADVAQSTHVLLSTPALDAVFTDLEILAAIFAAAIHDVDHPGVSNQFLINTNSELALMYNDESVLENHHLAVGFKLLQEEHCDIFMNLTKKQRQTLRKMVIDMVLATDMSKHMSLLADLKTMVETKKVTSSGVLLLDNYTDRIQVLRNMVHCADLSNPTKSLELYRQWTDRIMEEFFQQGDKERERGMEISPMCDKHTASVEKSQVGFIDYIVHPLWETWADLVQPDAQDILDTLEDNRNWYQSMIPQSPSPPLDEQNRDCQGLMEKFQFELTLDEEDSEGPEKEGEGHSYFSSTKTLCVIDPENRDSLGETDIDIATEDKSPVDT

- IC50 [1]: ~0.158 nM
- IC50 [2]: ~0.1 nM
Structure (SMILES): CCc1nc2c(cnn2CC)c(NC2CCOCC2)c1CNC(=O)c1cc(C)no1 [Example 1, N-{[1,6-diethyl-4-(tetrahydro-2H-pyran-4-ylamino)-1H-pyrazolo[3,4-b]pyridin-5-yl]methyl}-3-methyl-5-isoxazolecarboxamide]

From patent US20080255186A1, “Pyrazolo[3,4-B]Pyridine Compound, and Its Use as a Pde4 Inhibitor” (priority 2005, published 2008)
